Reference: article PMC5469811, “Identification of GXXXXG motif in Chrysophsin-1 and its implication in the design of analogs with cell-selective antimicrobial and anti-endotoxin activities” (Scientific Reports, 2017)
Values after ≈ are worked out from the molar mass of the structure shown. Residues, ends and D or L forms follow the SMILES beside them.

Experiments:
E. coli ATCC 25922 [1] = test: Synergy with conventional antibiotics, checkerboard titration; type: cell-based, Escherichia coli
Experimental: The checkerboard titration method was followed to check the synergy of peptides with other antibiotics. First, 2-fold serial dilutions of the antibiotics and antimicrobial peptides were prepared. Subsequently, 50 μl each of different concentrations of antibiotics and of antimicrobial peptides was mixed and added into 100 μl of log phase bacteria culture in a 96-well plate. The plates were then incubated at 37 °C for 24 h. The fractional inhibitory concentration (FIC) index (FICI) was calculated as follows[39]: FICI=(MICofdrugAincombination)/(MICofdrugAalone)+(MICofdrugBincombination)/(MICofdrugB): FICI < 0.5 is considered to indicate synergy; 0.5 < FICI < 1.0 is considered additive; 1.0 < FICI < 4.0 is considered indifferent; and FICI > 4.0 is considered antagonism.

Cryptococcus neoformans = test: microbe, parasite or virus in culture; type: cell-based; details: 72 h; read-out: Minimum inhibitory concentration (MIC)
Experimental: (§1) The anti- fungal activity of peptides was performed according to the standard micro broth dilution technique as per NCCLS guidelines. These plates were incubated in a moist chamber at 35 °C, and an absorbance at 492 nm was recorded on a VersaMax microplate reader after 48 h for C. albicans ATCC 10231 and C. parapsilosis ATCC 22019 and 72 h for C. neoformans.

[2] = tested on: Candida parapsilosis (ATCC 22019); test: microbe, parasite or virus in culture; type: cell-based; details: ATCC 22019, 48 h; read-out: Minimum inhibitory concentration (MIC)
Experimental: as §1

[3] = tested on: Candida albicans (ATCC 10231); test: microbe, parasite or virus in culture; type: cell-based; details: ATCC 10231, 48 h; read-out: Minimum inhibitory concentration (MIC)
Experimental: as §1

[4] = tested on: Escherichia coli (ATCC 25922); test: microbe, parasite or virus in culture; type: cell-based; details: ATCC 25922; read-out: Minimum inhibitory concentration (MIC)
Experimental: (§2) Antibacterial assay against various Gram-positive and Gram-negative strains of bacteria was performed by the serial two-fold dilution method according to the previously reported procedure, [36]. The antibacterial assays were repeated thrice and the averages of these MIC values were reported.

[5] = tested on: Escherichia coli (ATCC 9637); test: microbe, parasite or virus in culture; type: cell-based; details: ATCC 9637; read-out: Minimum inhibitory concentration (MIC)
Experimental: as §2

[6] = tested on: Staphylococcus aureus (BAA-44)MDR; test: microbe, parasite or virus in culture; type: cell-based; details: BAA-44; read-out: Minimum inhibitory concentration (MIC)
Experimental: as §2

[7] = tested on: Staphylococcus aureus (ATCC 700699 MRSA); test: microbe, parasite or virus in culture; type: cell-based; details: ATCC 700699; read-out: Minimum inhibitory concentration (MIC)
Experimental: as §2

[8] = tested on: Pseudomonas aeruginosa (ATCC BAA-427); test: microbe, parasite or virus in culture; type: cell-based; details: ATCC BAA-427; read-out: Minimum inhibitory concentration (MIC)
Experimental: as §2

[9] = tested on: Staphylococcus aureus (ATCC 25923); test: microbe, parasite or virus in culture; type: cell-based; details: ATCC 25923; read-out: Minimum inhibitory concentration (MIC)
Experimental: as §2

[10] = tested on: Staphylococcus aureus (ATCC 33592) Methicillin resistant Genatmicin resistant; test: microbe, parasite or virus in culture; type: cell-based; details: ATCC 33592; read-out: Minimum inhibitory concentration (MIC)
Experimental: as §2

[11] = tested on: Staphylococcus aureus (ATCC 29213); test: microbe, parasite or virus in culture; type: cell-based; details: ATCC 29213; read-out: Minimum inhibitory concentration (MIC)
Experimental: as §2

[12] = tested on: Staphylococcus aureus (ATCC 700698 MRSA); test: microbe, parasite or virus in culture; type: cell-based; details: ATCC 700698; read-out: Minimum inhibitory concentration (MIC)
Experimental: as §2

[13] = tested on: Bacillus subtilis (ATCC 6633); test: microbe, parasite or virus in culture; type: cell-based; details: ATCC 6633; read-out: Minimum inhibitory concentration (MIC)
Experimental: as §2

[14] = tested on: Klebsiella pneumoniae (ATCC 27736); test: microbe, parasite or virus in culture; type: cell-based; details: ATCC 27736; read-out: Minimum inhibitory concentration (MIC)
Experimental: as §2

E. coli ATCC 25922 [15] = type: cell-based, Escherichia coli; details: ATCC 25922, 18 h
Experimental: (§3) E. coli ATCC25922 was grown to 10^6 CFU/ml in fresh MH broth with various divalent and monovalent salts at their physiological concentrations. Serial dilutions of chrysophsin-1 and its variants prepared with the same MH broth were added to the E. coli ATCC 25922 suspensions. The bacteria were incubated at 37 °C in a shaking incubator for 18 h and the MIC values of individual peptides against E. coli ATCC 25922 were determined. Thermal tolerance of Chrysophsin-1 and its variants was checked by incubating the peptides at 4 °C, 60 °C and 90 °C for 1 h prior to MIC determination. The antibacterial activity in presence of serum was carried out by adding a final concentration of 10% fetal bovine serum in the assay diluents containing 0.4% BSA, 0.02% glacial acetic acid. The subsequent steps in both the experiments were consistent with the MIC determination method.

E. coli (ATCC 25922) = type: cell-based, Escherichia coli; details: ATCC 25922, 1 h
Experimental: as §3

[16] = tested on: Sporothrix schenckii (Patient isolates); test: microbe, parasite or virus in culture; type: cell-based; details: 48 h; read-out: Minimum inhibitory concentration (MIC)
S. aureus (ATCC 25923) = type: cell-based, Staphylococcus aureus; details: ATCC 25923, 1 h
Experimental: as §3

Question: Which “interaction of peptide with chloramphenicol (by FICI)” value (E. coli ATCC 25922 [1]) does the source give for `CC[C@H](C)[C@H](NC(=O)[C@H](C)NC(=O)[C@H](CCCCN)NC(=O)CNC(=O)[C@H](C)NC(=O)[C@H](Cc1c[nH]cn1)NC(=O)[C@@H](NC(=O)[C@H](C)NC(=O)[C@@H]1CCCN1C(=O)[C@H](CCCCN)NC(=O)[C@@H](NC(=O)[C@H](CC(C)C)NC(=O)[C@H](Cc1c[nH]c2ccccc12)NC(=O)CNC(=O)[C@H](Cc1ccccc1)NC(=O)[C@@H](N)Cc1ccccc1)[C@@H](C)CC)[C@@H](C)CC)C(=O)N[C@@H](Cc1c[nH]cn1)C(=O)NCC(=O)N[C@@H](CC(C)C)C(=O)N[C@H](C(=O)N[C@@H](Cc1c[nH]cn1)C(=O)N[C@@H](CCCNC(=N)N)C(=O)N[C@@H](CCCNC(=N)N)C(=O)N[C@@H](CCCNC(=N)N)C(=O)N[C@@H](Cc1c[nH]cn1)C(N)=O)[C@@H](C)CC` [Peptide G8P-Chr-1] (H-FFGWLIKPAIHAGKAIHGLIHRRRH-NH2; N-terminus and C-terminus assumed) here?
Answer: The value was “synergy (FICI < 0.5 is considered to indicate synergy)”.

Question: What about the MIC (Cryptococcus neoformans) of the same molecule?
Answer: The MIC was 6.8 µM (≈ 19.9 µg/mL).

Question: And the MIC [2]?
Answer: The MIC was 6.8 µM (≈ 19.9 µg/mL).

Question: And the MIC [3]?
Answer: Its MIC is 3 µM (≈ 8.79 µg/mL).

Question: And the MIC [4]?
Answer: The MIC was 4.1 µM (≈ 12 µg/mL).

Question: And the MIC [5]?
Answer: Its MIC is 3.3 µM (≈ 9.67 µg/mL).

Question: What about the MIC [6] of the same molecule?
Answer: Its MIC is 1.6 µM (≈ 4.69 µg/mL).

Question: And the MIC [7]?
Answer: Its MIC is 1.6 µM (≈ 4.69 µg/mL).

Question: And the MIC [8]?
Answer: Its MIC is 6.8 µM (≈ 19.9 µg/mL).

Question: And the MIC [9]?
Answer: The MIC was 3 µM (≈ 8.79 µg/mL).

Question: And the MIC [10]?
Answer: The MIC was 0.8 µM (≈ 2.35 µg/mL).

Question: And the MIC [11]?
Answer: Its MIC is 1.6 µM (≈ 4.69 µg/mL).

Question: And the MIC [12]?
Answer: Its MIC is 1.6 µM (≈ 4.69 µg/mL).

Question: And the MIC [13]?
Answer: Its MIC is 3 µM (≈ 8.79 µg/mL).

Question: What about the MIC [14] of the same molecule?
Answer: Its MIC is 3.3 µM (≈ 9.67 µg/mL).

Question: And the “Antibacterial activity (MIC) in the presence of 10% FBS” value (E. coli ATCC 25922 [15])?
Answer: Its value is 8.6 µM.

Question: And the “Antibacterial activity (MIC) in the presence of FeCl3” value (E. coli ATCC 25922 [15])?
Answer: Its value is 4.1 µM.

Question: And the “Antibacterial activity (MIC) in the presence of KCl” value (E. coli ATCC 25922 [15])?
Answer: Its value is 4.3 µM.

Question: And the “Antibacterial activity (MIC) in the presence of MgCl2” value (E. coli ATCC 25922 [15])?
Answer: Its value is 4.3 µM.

Question: What about the “Antibacterial activity (MIC) in the presence of NH4Cl” value (E. coli ATCC 25922 [15]) of the same molecule?
Answer: Its value is 2.0 µM.

Question: And the “Antibacterial activity (MIC) in the presence of NaCl” value (E. coli ATCC 25922 [15])?
Answer: Its value is 8.6 µM.

Question: What about the “Antibacterial activity (MIC) in the presence of ZnCl2” value (E. coli ATCC 25922 [15]) of the same molecule?
Answer: The value was 2 µM.

Question: What about the “Antibacterial activity (MIC) after incubating peptide at 4 °C” value (E. coli (ATCC 25922)) of the same molecule?
Answer: Its value is 4.1 µM.

Question: What about the “Antibacterial activity (MIC) after incubating peptide at 60 °C” value (E. coli (ATCC 25922)) of the same molecule?
Answer: Its value is 4.3 µM.

Question: And the “Antibacterial activity (MIC) after incubating peptide at 90 °C” value (E. coli (ATCC 25922))?
Answer: The value was 8.3 µM.

Question: What about the MIC [16] of the same molecule?
Answer: Its MIC is 13.6 µM (≈ 39.9 µg/mL).

Question: What about the “Antibacterial activity (MIC) after incubating peptide at 4 °C” value (S. aureus (ATCC 25923)) of the same molecule?
Answer: Its value is 3 µM.

Question: What about the “Antibacterial activity (MIC) after incubating peptide at 60 °C” value (S. aureus (ATCC 25923)) of the same molecule?
Answer: The value was 4.3 µM.

Question: What about the “Antibacterial activity (MIC) after incubating peptide at 90 °C” value (S. aureus (ATCC 25923)) of the same molecule?
Answer: The value was 8.6 µM.
